Measurements as given in patent US9695155B2, “Herbicidal substituted pyrimidinyloxy benzene compounds” (E. I. DU PONT DE NEMOURS AND COMPANY, priority 2013, dated 2017).

Tests used:
[1] = system: morningglory; assay: Test A postemergence; type: in vivo, Ipomoea spp.
Method in brief: (§1)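 Pre- and postemergence greenhouse screen. Soil: loam + sand. Spray carrier: solvent mixture, non-phytotoxic, with surfactant. Post timing at 1–2 leaves, height 2–10 cm. Readout: visual injury on a 0–100 scale roughly 10 days after application, untreated plants as reference.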

[2] = system: kochia; assay: Test C postemergence; type: in vivo, Kochia scoparia
Method in brief: (§2)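 Injury was assessed visually against controls 13 to 15 days after application, with 0 meaning no effect and 100 full control; missing entries are shown as a dash. Preemergence sprays hit seeded loam–sand soil, postemergence sprays hit 1- to 4-leaf plants.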

[3] = system: pigweed; assay: Test A preemergence; type: in vivo, Amaranthus retroflexus; conditions: for Pigweed plant response rating: 500 g ai/ha
Method in brief: as §1

[4] = system: pigweed; assay: Test C postemergence; type: in vivo, Amaranthus retroflexus
Method in brief: as §2

[5] = system: Heteranthera limosa; assay: Test B flooded paddy test; type: in vivo; conditions: Flood, 250 g ai/ha; 0 to 100 scale where 0 is no effect and 100 is complete control
Method in brief: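 Scores from 0 (no effect) to 100 (complete control) are visual comparisons with controls, taken 13 to 15 days after compound was applied into floodwater 3 cm deep around 2-leaf plants.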

[6] = system: morningglory; assay: Test C postemergence; type: in vivo, Ipomoea coccinea
Method in brief: as §2

[7] = system: ragweed; assay: Test C postemergence; type: in vivo, Ambrosia elatior
Method in brief: as §2

[8] = system: barnyardgrass; assay: Test A preemergence; type: in vivo, Echinochloa crus-galli; conditions: for Barnyardgrass plant response rating: 500 g ai/ha
Method in brief: as §1

[9] = system: morningglory; assay: Test A preemergence; type: in vivo, Ipomoea spp.
Method in brief: as §1

[10] = system: velvetleaf; assay: Test A preemergence; type: in vivo, Abutilon theophrasti
Method in brief: as §1

[11] = system: wheat; assay: Test A postemergence; type: in vivo, Triticum aestivum
Method in brief: as §1

[12] = system: velvetleaf; assay: Test C postemergence; type: in vivo, Abutilon theophrasti
Method in brief: as §2

[13] = system: wild oat; assay: Test C postemergence; type: in vivo, Avena fatua
Method in brief: as §2

[14] = system: barnyardgrass; assay: Test C postemergence; type: in vivo, Echinochloa crus-galli
Method in brief: as §2

[15] = system: blackgrass; assay: Test C postemergence; type: in vivo, Alopecurus myosuroides
Method in brief: as §2

[16] = 125 g ai/ha, 0 to 100 scale where 0 is no effect and 100 is complete control
[17] = 500 g ai/ha, 0 to 100 scale, 0 no effect, 100 complete control
[18] = Postemergence, 31 g ai/ha, scale 0 to 100 (0 no effect, 100 complete control), 13 to 15 days
[19] = Postemergence, 62 g ai/ha, scale 0 to 100 (0 no effect, 100 complete control)
[20] = 0 to 100 scale, 0 no effect, 100 complete control, approx. 10 days
[21] = 500 g ai/ha, 0 to 100 scale, 0 no effect, 100 complete control, approx. 10 days
[22] = 16 g ai/ha, postemergence, 0 is no effect, 100 is complete control
[23] = 31 g ai/ha, postemergence, visual rating, scale 0 to 100 (0 no effect, 100 complete control), 13 to 15 days
[24] = 125 g ai/ha, postemergence, visual rating, scale 0 to 100 (0 no effect, 100 complete control)
[25] = Postemergence, 62 g ai/ha, scale 0 to 100 (0 no effect, 100 complete control), 13 to 15 days
[26] = 0 to 100 scale where 0 is no effect and 100 is complete control

`Fc1cnc(Oc2ccccc2-n2cc(C(F)(F)F)cn2)nc1` [Compound 47] was tested, and the “Plant response rating, Morningglory” value [1, 16] was 80, the “Plant response rating, Morningglory” value [1, 17] was 100 and the “Plant response rating (0 to 100), Kochia” value ([2]; 125 g ai/ha, postemergence) was 25. For the same compound, the “Plant response rating (0 to 100), Kochia” value ([2]; 250 g ai/ha, postemergence) was 60, the “Plant response rating, Kochia” value [2, 18] was 5 and the “Plant response rating, Kochia” value [2, 19] was 10. For the same compound, the “Plant response rating, Pigweed” value [3, 16] was 100, the “Pigweed plant response rating” value [3, 20] was 100 and the “Plant response rating (0 to 100), Pigweed” value ([4]; 125 g ai/ha, postemergence) was 65. For the same compound, the “Plant response rating (0 to 100), Pigweed” value ([4]; 250 g ai/ha, postemergence) was 70, the “Plant response rating, Pigweed” value [4, 18] was 40 and the “Plant response rating, Pigweed” value [4, 19] was 55. For the same compound, the “Plant response rating, Ducksalad” value [5] was 95, the “Plant response rating (0 to 100), Morningglory” value ([6]; 125 g ai/ha, postemergence) was 70 and the “Plant response rating (0 to 100), Morningglory” value ([6]; 250 g ai/ha, postemergence) was 75. The “Plant response rating, Morningglory” value [6, 18] was 20, the “Plant response rating, Morningglory” value [6, 19] was 70 and the “Plant response rating (0 to 100), Ragweed” value ([7]; 125 g ai/ha, postemergence) was 50. The “Plant response rating (0 to 100), Ragweed” value ([7]; 250 g ai/ha, postemergence) was 85, the “Plant response rating, Ragweed” value [7, 18] was 20 and the “Plant response rating, Ragweed” value [7, 19] was 50. The “Plant response rating, Barnyardgrass” value [8, 16] was 20, the “Barnyardgrass plant response rating” value [8, 20] was 100 and the “Plant response rating, Morningglory” value [9, 16] was 0. For the same compound, the “Morningglory plant response rating” value [9, 21] was 100, the “Plant response rating, Velvetleaf” value [10, 16] was 100 and the “Velvetleaf plant response rating” value [10, 21] was 100. The “Plant response rating, Wheat” value [11, 16] was 60, the “Plant response rating, Wheat” value [11, 17] was 100 and the “Plant response rating (0 to 100), Velvetleaf” value ([12]; 125 g ai/ha, postemergence) was 70. For the same compound, the “Plant response rating (0 to 100), Velvetleaf” value ([12]; 250 g ai/ha, postemergence) was 100, the “Plant response rating, Velvetleaf” value [12, 18] was 45 and the “Plant response rating, Velvetleaf” value [12, 19] was 50. The “Plant response rating (0 to 100), Oat, Wild” value ([13]; 125 g ai/ha, postemergence) was 0, the “Plant response rating (0 to 100), Oat, Wild” value ([13]; 250 g ai/ha, postemergence) was 5 and the “Plant response rating, Oat, Wild” value [13, 18] was 0. The “Plant response rating, Oat, Wild” value [13, 19] was 0, the “Plant response rating (0 to 100), Barnyardgrass” value ([14]; 125 g ai/ha, postemergence) was 0 and the “Plant response rating (0 to 100), Barnyardgrass” value ([14]; 250 g ai/ha, postemergence) was 5. For the same compound, the “Plant response rating, Barnyardgrass” value [14, 18] was 0, the “Plant response rating, Barnyardgrass” value [14, 19] was 0 and the “Plant response rating (0 to 100), Blackgrass” value ([15]; 125 g ai/ha, postemergence) was 5. The “Plant response rating (0 to 100), Blackgrass” value ([15]; 250 g ai/ha, postemergence) was 40, the “Plant response rating, Blackgrass” value [15, 18] was 0 and the “Plant response rating, Blackgrass” value [15, 19] was 0.

For `N#Cc1cn(-c2c(C#N)cccc2Oc2ncc(Cl)cn2)nn1` [Compound 273], the “Plant response rating (0 to 100), Kochia” value [2, 22] was 70, the “Kochia plant response rating” value [2, 23] was 65 and the “Plant response rating, Kochia” value [2, 24] was 95. The “Plant response rating, Kochia” value [2, 25] was 80, the “Pigweed plant response rating (0 to 100 scale)” value ([3]; 125 g ai/ha) was 100 and the “Pigweed plant response rating” value [3, 26] was 100. For the same compound, the “Plant response rating (0 to 100), Pigweed” value [4, 22] was 65, the “Pigweed plant response rating” value [4, 23] was 80 and the “Plant response rating, Pigweed” value [4, 24] was 90. The “Plant response rating, Pigweed” value [4, 25] was 65, the “Plant response rating, Ducksalad” value [5] was 75 and the “Plant response rating (0 to 100), Morningglory” value [6, 22] was 60. The “Morningglory plant response rating” value [6, 23] was 65, the “Plant response rating, Morningglory” value [6, 24] was 85 and the “Plant response rating, Morningglory” value [6, 25] was 65. The “Plant response rating (0 to 100), Ragweed” value [7, 22] was 30, the “Ragweed plant response rating” value [7, 23] was 55 and the “Plant response rating, Ragweed” value [7, 24] was 80. For the same compound, the “Plant response rating, Ragweed” value [7, 25] was 55, the “Barnyardgrass plant response rating (0 to 100 scale, 0 is no effect, 100 is complete control)” value ([8]; 125 g ai/ha) was 70 and the “Barnyardgrass plant response rating” value [8, 26] was 90. For the same compound, the “Plant response rating, Wheat” value ([11]; 125 g ai/ha, 0 to 100 scale, 0 no effect, 100 complete control) was 10, the “Plant response rating, Wheat” value ([11]; 500 g ai/ha, 0 to 100 scale where 0 is no effect and 100 is complete control) was 50 and the “Plant response rating (0 to 100), Velvetleaf” value [12, 22] was 5. For the same compound, the “Velvetleaf plant response rating” value [12, 23] was 10, the “Plant response rating, Velvetleaf” value [12, 24] was 30 and the “Plant response rating, Velvetleaf” value [12, 25] was 25. The “Plant response rating (0 to 100), Oat, Wild” value [13, 22] was 5, the “Oat, Wild plant response rating” value [13, 23] was 5 and the “Plant response rating, Oat, Wild” value [13, 24] was 10. For the same compound, the “Plant response rating, Oat, Wild” value [13, 25] was 5, the “Plant response rating (0 to 100), Barnyardgrass” value [14, 22] was 5 and the “Barnyardgrass plant response rating” value [14, 23] was 5. The “Plant response rating, Barnyardgrass” value [14, 24] was 10, the “Plant response rating, Barnyardgrass” value [14, 25] was 5 and the “Plant response rating (0 to 100), Blackgrass” value [15, 22] was 5. For the same compound, the “Blackgrass plant response rating” value [15, 23] was 5, the “Plant response rating, Blackgrass” value [15, 24] was 10 and the “Plant response rating, Blackgrass” value [15, 25] was 10.
